From patent US4210638A, “Antiviral composition and method of treating virus diseases” (PCR, Inc., priority 1978, dated 1980)

Columns and labels:
uninfected cells = conditions: cited from earlier work; for toxicity in culture: cell culture; for toxicity towards uninfected cells compared with deoxyuridine compounds: Greer et al. 1975
Herpes simplex = conditions: cited from earlier work
[1] = test system: uridine and thymidine phosphorylase; conditions: cited from earlier work
HSV-2 = test: Antiviral activity vs HSV-2 in HEp-2 cells (plaque assay in BHK cells); type: cell-based; conditions: 100 or 500 μg/ml
Experimental: The culture medium containing the nucleoside analogs at varying concentrations are added to the infected cultures. In the case of HEp-2 cells which contain high deaminase levels, H4 U is incorporated into the medium. At 48 hours, virus is harvested from the cultures by freezing and thawing. The virus produced from each culture is titred by plaque assay in BHK cells. By using this protocol the antiviral effectiveness of F3 methyl dC can be compared directly with the effectiveness of other antiviral agents. Furthermore, by including H4 U in the medium, the effectiveness of F3 methyl dC can be determined without deamination at the nucleoside level.

man = conditions: extremely high concentrations; cited from earlier work
HEp-2 cells = test: Cytotoxicity vs HEp-2 cells (colony formation, % survival)
[2] = test system: HSV infections of the eye; conditions: cited from earlier work; for antiviral activity against HSV infections of the eye: Kaufman 1962 / Heidelberger
[3] = in vivo; cited from earlier work
human encephalitis = conditions: in vivo; cited from earlier work
recurrent genital Herpes = conditions: in vivo; cited from earlier work
vaccinia = conditions: Shugar 1974; cited from earlier work
vesicular stomatitis = conditions: Shugar 1974; cited from earlier work
animal systems = conditions: usually must be administered very soon after infection; cited from earlier work
[4] = biological target: T1, HSV-2 induced pyrimidine deoxyribonucleoside kinase (Human herpesvirus 2 strain HG52, UniProt P89446); test: Phosphorylation by HSV-2 induced pyrimidine deoxyribonucleoside kinase; type: biochemical; conditions: for nmoles phosphorylated/60min.: solutions a, c, d adjusted to the same O.D.
T1 construct: preparation not described in the excerpts
T1 sequence (P89446 whole entry): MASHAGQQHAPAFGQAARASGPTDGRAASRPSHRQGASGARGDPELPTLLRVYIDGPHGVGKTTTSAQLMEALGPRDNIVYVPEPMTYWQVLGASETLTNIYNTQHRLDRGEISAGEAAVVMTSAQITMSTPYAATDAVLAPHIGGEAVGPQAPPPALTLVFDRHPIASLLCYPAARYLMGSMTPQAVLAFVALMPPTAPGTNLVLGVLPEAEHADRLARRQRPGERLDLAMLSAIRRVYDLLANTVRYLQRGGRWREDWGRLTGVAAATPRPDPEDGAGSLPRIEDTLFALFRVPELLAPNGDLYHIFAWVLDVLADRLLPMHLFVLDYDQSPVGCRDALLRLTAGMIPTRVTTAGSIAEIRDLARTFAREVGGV
From the text: The following spots were eluted into H2 O and scanned from 225 to 350 nm: (a) standard, (b) F3 methyl dC standard, […] spot after cytidine deaminase treatment of F3 dT and […] spot after cytidine deaminase treatment of F3 methyl dC. The u.v. absorption profile of F3 dT derived from deamination of F3 methyl dC is identical to that obtained from authentic F3 dT.
Solutions a, c, and d, above, were adjusted to the same O. D. and used as substrates for HSV-2 induced pyrimidine deoxyribonucleoside kinase. Results:
Stock solutions of F3 dT and F3 methyl dC were made up and adjusted to the same concentration as the F3 dT and F3 methyl dC purified chromatographically (solutions a and b, respectively). Usually, F3 methyl dC is phosphorylated 1/6 of the extent that F3 dT is phosphorylated. […] This experiment was performed twice. Results:
Values for chromatographically purified samples are probably lower due to impurities arising from non-acid washed paper.

cytidine deaminase = test: Incubation with crude cytidine deaminase extract of HEP-2 cells (deamination); type: in vitro ADME, human; conditions: crude HEP-2 cytidine deaminase extract; Whatman 3MM chromatography
[5] = Incubation with HNO2 (pH 4.5) at room temperature; type: physicochemical
Experimental: (§1) The results of incubation with HNO2 (pH 4.5) at room temperature were identical to those obtained above.

[6] = Incubation with acetate buffer (pH 4.5); type: physicochemical; conditions: 9 hours
Experimental: as §1

SMILES: O=c1[nH]c(=O)n([C@H]2C[C@H](O)[C@@H](CO)O2)cc1-c1ccccc1 [5-phenyl-2'-deoxyuridine]
- toxicity in culture (uninfected cells): non-toxic in culture
- antiviral activity against Herpes simplex in cell culture (Herpes simplex): do exhibit antiviral activity
- substrate for catabolic enzymes uridine and thymidine phosphorylase [1]: substrates for the catabolic enzymes

SMILES: CCc1cn([C@H]2C[C@H](O)[C@@H](CO)O2)c(=O)[nH]c1=O [5-ethyl-2'-deoxyuridine]
- toxicity in culture (uninfected cells): non-toxic in culture
- antiviral activity against Herpes simplex in cell culture (Herpes simplex): do exhibit antiviral activity
- substrate for catabolic enzymes uridine and thymidine phosphorylase [1]: substrates for the catabolic enzymes

SMILES: O=C1NC(O)CCN1[C@@H]1O[C@H](CO)[C@@H](O)[C@H]1O (some centres unmarked) [H4 U, tetrahydrouridine, reference compound]
- antiviral activity of H4 U (HSV-2): does not display any antiviral activity
- toxicity in man (man): not toxic in man at extremely high concentrations
- cytotoxic activity of H4 U (HEp-2 cells; 100 or 500 μg/ml): does not display any cytotoxic activity

SMILES: O=c1[nH]c(=O)n([C@H]2C[C@H](O)[C@@H](CO)O2)cc1I [IdU, 5-iodo-2'-deoxyuridine]
- antiviral activity against HSV infections of the eye [2]: exhibits antiviral activity against HSV infections of the eye
- effectiveness against Herpes Keratitis compared with F3 dT ([2]; in vivo): less effective than F3 dT
- catabolism in the body [3]: rapid catabolism
- toxicity towards uninfected cells (uninfected cells): exhibit toxicity towards uninfected cells
- effectiveness in human Herpes encephalitis (human encephalitis): ineffectiveness

SMILES: Nc1ncnc2c1ncn2[C@@H]1O[C@H](COP(=O)(O)O)[C@@H](O)[C@@H]1O [ara-AMP]
- effect against recurrent genital Herpes (recurrent genital Herpes): neither effective against recurrent genital Herpes

SMILES: Nc1nc(=O)n([C@H]2C[C@H](O)[C@@H](CO)O2)cc1Br [BrdC, 5-bromo-2'-deoxycytidine]
- toxicity towards uninfected cells compared with deoxyuridine compounds (uninfected cells): substantially less toxic towards uninfected cells

SMILES: N#CSc1cn([C@H]2C[C@H](O)[C@@H](CO)O2)c(=O)[nH]c1=O [5-thiocyanato-2'-deoxyuridine]
- toxicity in culture (uninfected cells): non-toxic in culture
- antiviral activity against Herpes simplex in cell culture (Herpes simplex): do exhibit antiviral activity
- substrate for catabolic enzymes uridine and thymidine phosphorylase [1]: substrates for the catabolic enzymes

SMILES: CCc1cn([C@H]2C[C@H](O)[C@@H](CO)O2)c(=O)nc1N [5-ethyl-2'-deoxycytidine]
- antiviral activity against HSV infected cells (Herpes simplex; Shugar 1974): only a low antiviral activity
- activity against vaccinia (vaccinia): no activity
- activity against vesicular stomatitis (vesicular stomatitis): no activity

SMILES: O=C1NC(O)CCN1[C@H]1C[C@H](O)[C@@H](CO)O1 (some centres unmarked) [2'-deoxytetrahydrouridine]
- toxicity in man (man): not toxic in man at extremely high concentrations

SMILES: Nc1ncnc2c1ncn2[C@@H]1O[C@H](CO)[C@@H](O)[C@@H]1O [Adenine arabinoside]
- incidence of death due to human encephalitis (human encephalitis): decrease the incidence of death
- effect against recurrent genital Herpes (recurrent genital Herpes): neither effective against recurrent genital Herpes

SMILES: O=C(O)CP(=O)(O)O [Phosphonacetic acid]
- efficacy in animal systems (animal systems): effective in animal systems

SMILES: Nc1nc(=O)n([C@H]2C[C@H](O)[C@@H](CO)O2)cc1I [IdC, 5-iodo-2'-deoxycytidine]
- treatment of Herpes Keratitis in humans compared with IdU ([2]; humans, Kurimoto et al. 1969): more effective
- toxicity towards uninfected cells compared with deoxyuridine compounds (uninfected cells): substantially less toxic towards uninfected cells

SMILES: O=c1[nH]c(=O)n([C@H]2C[C@H](O)[C@@H](CO)O2)cc1C(F)(F)F [F3 dT, 5-trifluoromethyl-2'-deoxyuridine]
- nmoles phosphorylated/4 hrs ([4]; chromatographically purified, value in parentheses (experiment performed twice)): 0.19 nmoles/4 hrs
- nmoles phosphorylated/4 hrs ([4]; chromatographically purified, value outside parentheses): 0.16 nmoles/4 hrs
- extent of phosphorylation compared with F3 dT ([4]; product of cytidine deaminase treatment of F3 methyl dC (d)): to the same extent as F3 dT
- nmoles phosphorylated/60min. ([4]; listed as a): 0.07 nmoles/60min
- nmoles phosphorylated/60min. ([4]; listed as c): 0.08 nmoles/60min
- nmoles phosphorylated/60min. ([4]; listed as d): 0.05 nmoles/60min
- nmoles phosphorylated/4 hrs ([4]; standard solutions, value in parentheses (experiment performed twice)): 0.57 nmoles/4 hrs
- nmoles phosphorylated/4 hrs ([4]; standard solutions, value outside parentheses): 0.48 nmoles/4 hrs
- chromatographic change on incubation with cytidine deaminase (cytidine deaminase): remained unchanged chromatographically
- change on incubation with HNO2 [5]: remained unaltered
- modification in acetate buffer [6]: did not lead to modification
- antiviral activity against HSV infections of the eye [2]: does exhibit antiviral activity against infections of the eye
- catabolism in the body [3]: rapid catabolism
- toxicity towards uninfected cells (uninfected cells): exhibit toxicity towards uninfected cells
- cytotoxicity at concentrations with antiviral activity (HEp-2 cells; ±H4 U): extremely cytotoxic

SMILES: CNc1cn([C@H]2C[C@H](O)[C@@H](CO)O2)c(=O)[nH]c1=O [5-methyl amino-2'-deoxyuridine]
- toxicity in culture (uninfected cells): non-toxic in culture
- substrate for catabolic enzymes uridine and thymidine phosphorylase [1]: substrates for the catabolic enzymes

SMILES: Cc1cn([C@H]2C[C@H](O)[C@@H](CO)O2)c(=O)nc1N [5-methyl-2'-deoxycytidine]
- antiviral activity against HSV infected cells compared with 5-methyl-2'-deoxyuridine (Herpes simplex; Lin and Prusoff 1977): less effective

SMILES: C=CCc1cn([C@H]2C[C@H](O)[C@@H](CO)O2)c(=O)[nH]c1=O [5-allyl-2'-deoxyuridine]
- toxicity in culture (uninfected cells): non-toxic in culture
- antiviral activity against Herpes simplex in cell culture (Herpes simplex): do exhibit antiviral activity
- substrate for catabolic enzymes uridine and thymidine phosphorylase [1]: substrates for the catabolic enzymes

SMILES: O=c1[nH]c(=O)n([C@H]2C[C@H](O)[C@@H](CO)O2)cc1F [5-fluorodeoxyuridine]
- antiviral activity against HSV infections of the eye [2]: very little antiviral activity

SMILES: CCCc1cn([C@H]2C[C@H](O)[C@@H](CO)O2)c(=O)[nH]c1=O [5-propyl-2'-deoxyuridine]
- toxicity in culture (uninfected cells): non-toxic in culture
- antiviral activity against Herpes simplex in cell culture (Herpes simplex): do exhibit antiviral activity
- substrate for catabolic enzymes uridine and thymidine phosphorylase [1]: substrates for the catabolic enzymes
